The results in this text go back to the kinase profiling compilation of Christmann-Franck et al. (2016).

The term Ki denotes the equilibrium dissociation constant of an inhibitor or competing ligand from its target.

A value given as a limit tells only on which side of the number the result lay.

This assay deals with SGK1 (human) (UniProt O00141). The assay is described as follows: Flashplate.
SGK1 (human), sequence (O00141 whole entry, looked up): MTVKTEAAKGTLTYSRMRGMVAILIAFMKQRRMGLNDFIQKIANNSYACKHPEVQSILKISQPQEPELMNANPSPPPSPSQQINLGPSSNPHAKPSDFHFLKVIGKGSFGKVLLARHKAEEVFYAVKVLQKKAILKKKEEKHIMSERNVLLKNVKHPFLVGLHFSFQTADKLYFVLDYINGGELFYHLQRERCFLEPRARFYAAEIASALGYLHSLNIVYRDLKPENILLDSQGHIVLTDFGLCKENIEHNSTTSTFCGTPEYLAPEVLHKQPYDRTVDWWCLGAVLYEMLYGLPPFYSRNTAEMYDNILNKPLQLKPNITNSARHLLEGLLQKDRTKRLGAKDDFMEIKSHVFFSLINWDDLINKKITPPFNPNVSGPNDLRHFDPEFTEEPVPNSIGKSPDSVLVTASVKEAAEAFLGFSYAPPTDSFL
`Fc1ccc(-c2nc(-c3ccc(F)cc3)c(-c3ccncc3)[nH]2)cc1` came in with a Ki greater than 10 µM.

Compound `O=C(Nc1ccc(-c2cccc3sncc23)cc1)Nc1ccc(F)c(C(F)(F)F)c1` showed a Ki greater than 10 µM.

The compound `OCCNc1cc2cc(-c3cccnc3)ccc2cn1` yielded a Ki of 3.98 µM.

Take `COc1ccc(-c2cc3nccn3c(Nc3ccccc3C(N)=O)n2)cc1OC`: the Ki is greater than 10 µM.

`O=C1Nc2ccccc2Nc2ccccc21`: the Ki was greater than 10 µM.

Turning to `O=C(Nc1ccc2cn[nH]c2c1)c1ccc(Cl)cc1`, the Ki is greater than 10 µM.

Compound `CC(C)(C)c1cnc(CSc2cnc(NC(=O)C3CCNCC3)s2)o1` had a Ki greater than 6.31 µM.

Regarding `CC(C)OC1=NNC(=O)/C1=C/c1c[nH]c2ccccc12`, the inhibition constant (Ki) was greater than 10 µM.

As to `S=c1[nH]nc2c3c4c(sc3n3c(=S)[nH]nc3n12)CCC4`, the Ki was 1.58 µM.

Turning to `O=C(NCC1CCCCC1)c1cc2c(-c3ccccc3)n[nH]c2s1`, the inhibition constant (Ki) was determined as 3.16 µM.

`Cc1ccc(-c2cnc(N)c3c(-c4ccc(NC(=O)Nc5cccc(F)c5)cc4)csc23)cn1` came in with a Ki greater than 10 µM.

For the compound `CCOc1nc(C(=O)NCc2ccncc2)cc(N)c1C#N`, the Ki is greater than 10 µM.

On to `NS(=O)(=O)c1cccc(Nc2ncc3ccn(Cc4ccccc4)c3n2)c1`, for which the inhibitory constant (Ki) was 3.98 µM.

`Clc1ccc(CNc2ccc3nnc(-c4ccccc4)n3n2)cc1` gave a Ki greater than 10 µM.

As to `Nc1ncc(-c2ccoc2)c2scc(-c3ccc(NC(=O)Nc4ccccc4F)cc3)c12`, the inhibition constant Ki was greater than 10 µM.

As to `Cc1n[nH]c2ncc(C#N)c(-c3ccccc3)c12`, the inhibition constant (Ki) was 3.98 µM.

In the case of `OC(COc1cncc(/C=C/c2ccncc2)c1)Cc1c[nH]c2ccccc12` (stereo unspecified), the Ki was greater than 10 µM.

In turn, `Nc1n[nH]c2ccc(-c3nnn(Cc4ccccc4)c3-c3ccc(F)cc3)cc12` registered an inhibition constant Ki of 2.51 µM.

`Cc1cccc(NC(=O)Nc2ccc(-c3cncc4c3c(N)nn4C)cc2)c1` yielded an inhibitory constant (Ki) greater than 7.94 µM.

The compound `CN(C)CC(C)(C)CNc1nccc(-c2c(-c3ccc(F)cc3)nc3occn23)n1` gave an inhibition constant Ki greater than 10 µM.

As to `NCCOc1cccc(Nc2ccnc(N)n2)c1`, the inhibition constant Ki was greater than 10 µM.

For the compound `NC(=O)c1ccc(N[C@H]2CCCC[C@H]2N)nc1Nc1cccc(Cl)c1`, the Ki is greater than 6.31 µM.

In turn, `COc1ccc(OC)c(NC(=O)c2cnn3c(-c4ccccc4)ccnc23)c1` gave an inhibition constant (Ki) greater than 10 µM.

`O=c1nc(-c2ccc3[nH]ncc3c2)cc(-c2ccccc2)[nH]1` showed a Ki of 2 µM.

`O=C(N/N=C/c1ccc(O)cc1O)Nc1cccc2nsnc12` had a Ki of 0.126 µM.

As to `Cc1ccccc1NC(=O)Nc1ccc(NC(=O)c2csc3ncnc(N)c23)cc1`, the inhibition constant Ki was greater than 10 µM.

`N#CCOc1ccc(Nc2nc(Nc3cccc(S(N)(=O)=O)c3)ncc2Br)cc1`: the Ki worked out at 0.398 µM.

In turn, `O=C(NCc1ccccc1)c1ccc(-c2ccncc2)cc1` showed an inhibition constant (Ki) of 3.16 µM.

Turning to `Cc1cnc(Nc2cccc(S(N)(=O)=O)c2)nc1Nc1ccc(OCC(N)=O)cc1`, the Ki turned out to be 6.31 µM.

With `Cc1cc(Cl)ccc1NC(=S)NNC(=O)C(O)(c1ccccc1)c1ccccc1`, the Ki came to 6.31 µM.

Regarding `O=S(=O)(O)c1ccc(NCc2ccc3c(c2)OCO3)c2c(O)cccc12`, the inhibition constant Ki is greater than 10 µM.

In turn, `CCOc1nc(C(=O)NCc2ccc(S(C)(=O)=O)cc2)cc(N)c1Cl` showed a Ki greater than 10 µM.

Turning to `CN(C)c1cc2sncc2cc1NC(=O)C(=O)O`, the inhibitory constant (Ki) is greater than 10 µM.

`O=C(Nc1ccc2[nH]ncc2c1)c1ccc(Cl)cc1` had a Ki of 7.94 µM.

In turn, `O=C(Cc1ccccc1)Nc1cccc(-c2nc3sccn3c2-c2ccnc(Nc3ccc(N4CCOCC4)cc3)n2)c1` displayed a Ki greater than 10 µM.

`Nc1ncnc2sc3c(c12)-c1ccc(NC(=O)Nc2ccccc2)cc1CC3`: the inhibition constant Ki was greater than 10 µM.

As for `Fc1cnc(Nc2ccccc2)nc1Nc1ccccc1`, the Ki is greater than 10 µM.

`O=C(Nc1nc2ccccc2n1CCCO)c1cccc([N+](=O)[O-])c1` came in with an inhibition constant Ki greater than 10 µM.

`N#Cc1ncc2nc1OCC(O)C(O)COc1ccc(Cl)cc1NC(=O)N2` (stereo unspecified) yielded a Ki greater than 10 µM.

The compound `COc1cccc([C@H](C)NC(=O)c2ccc(-c3ccncc3)c(C)c2)c1` gave an inhibition constant Ki of 0.316 µM.

The compound `COCCOCC#Cc1cc(-c2n[nH]c3c2C(=O)c2cc(CN4CCN(C)CC4)ccc2-3)cs1` displayed a Ki greater than 10 µM.

The compound `CN(C)c1cccc2c(S(=O)(=O)N(CCN)c3cncc(-c4ccc5cnccc5c4)c3)cccc12` displayed a Ki of 3.98 µM.

For `CN(C)CCCOc1cc2c(c(-c3ccc(Nc4nc5ccccc5o4)cc3)c1)CNC2=O`, the inhibitory constant (Ki) is greater than 10 µM.

`O=C(NCc1ccccc1)c1cccc(-c2cnc3[nH]ccc3c2)c1`: the inhibition constant Ki is greater than 10 µM.

`Nc1ncnc(Nc2cc(CNC(=O)C(F)(F)F)c(O)c(-c3ccc(Cl)cc3)c2)n1` displayed a Ki greater than 10 µM.

For the compound `COC(=O)c1c(-c2ccc(NC(=O)Nc3ccccc3)cc2)c2c(N)ncnn2c1C`, the Ki worked out at 0.631 µM.

As for `NCCCOc1cc2c(c(-c3ccc(Nc4nc5ccccc5o4)cc3)c1)CNC2=O`, the inhibition constant Ki amounted to 7.94 µM.

As for `Nc1ncc(-c2cnn(CCO)c2)c2scc(-c3ccc(NC(=O)Nc4cccc(F)c4)cc3)c12`, the inhibitory constant (Ki) is 2.51 µM.

Consider `OCCCn1cnc(-c2ccccc2)c1-c1ccncc1`, for which the Ki was greater than 10 µM.

`NC(=O)c1cccc2[nH]c(-c3ccc(C4CCCNC4)cc3F)nc12` (stereo unspecified) had a Ki greater than 10 µM.

In the case of `C#Cc1cc2c(cc1OC)-c1[nH]nc(-c3ccc(C#N)nc3)c1C2`, the inhibitory constant (Ki) is greater than 10 µM.

Consider `NCCCNS(=O)(=O)c1cccc(C(=O)Nc2ccc(-c3n[nH]c(=O)c4ccccc34)cc2)c1`, for which the inhibition constant (Ki) is greater than 10 µM.

As for `Cc1cc(C)c(C)c(OCCCc2c(C(=O)O)[nH]c3c(-c4ccccc4C)cccc23)c1`, the Ki is greater than 10 µM.

Consider `NC(=O)c1cc2c(-c3ccc(Br)c(F)c3F)cncc2s1`, for which the Ki was 0.398 µM.

On to `Cc1cn2c(-c3ccnc(NCC(C)(C)CO)n3)c(-c3ccc(F)cc3F)nc2c(C)n1`, for which the Ki was greater than 10 µM.

With `N[C@@H]1[C@H]2CN(c3nc4c(cc3F)c(=O)c(C(=O)O)cn4-c3ccc(F)cc3F)C[C@@H]12`, the inhibition constant (Ki) is greater than 10 µM.

`COc1cc(-c2ccc3c(c2)Nc2ccc(CCOc4ccc(N5CCOCC5)cc4)cc2NC3=O)ccc1OCC(O)CO` (stereo unspecified) showed a Ki greater than 10 µM.

Turning to `CC(C)(C)c1n[nH]c2c1C(c1ccccc1F)C(C#N)=C(N)O2` (stereo unspecified), the inhibitory constant (Ki) is greater than 10 µM.

In the case of `Fc1ccc(-c2nc3sccn3c2-c2ccncc2)cc1`, the inhibitory constant (Ki) was greater than 10 µM.

In turn, `Cn1nc(N)c2c(-c3ccc(NC(=O)Nc4cccc(C(F)(F)F)c4)cc3)cncc21` registered a Ki greater than 10 µM.

Turning to `NCCCOc1cncc(/C=C/c2ccncc2)c1`, the Ki is greater than 10 µM.

In the case of `Cn1cc(-c2ccncn2)c(-c2ccc(F)cc2)n1`, the inhibition constant Ki was greater than 10 µM.

Compound `CN(C)S(=O)(=O)c1ccccc1-c1ccc2c(c1)Nc1ccccc1NC2=O` showed a Ki greater than 10 µM.

The compound `NC(=O)c1cccc2[nH]c(-c3ccncc3)nc12` showed a Ki of 6.31 µM.

Compound `Cc1cc(C)cc(NC(=O)Nc2ccc3c(c2)CCc2sc4ncnc(N)c4c2-3)c1` displayed a Ki greater than 10 µM.

`CN(C)CC(C)(C)CNc1nccc(-c2c(-c3ccc(F)cc3)nc3cnccn23)n1` gave an inhibitory constant (Ki) greater than 10 µM.

`O=C(Nc1cccc(-c2nc3sccn3c2-c2ccnc(Nc3cccc(N4CCCC4=O)c3)n2)c1)c1c(F)cccc1F` had an inhibition constant (Ki) greater than 10 µM.

The compound `COCCN(C)C(=O)c1c(-c2ccc3[nH]ncc3c2)nnn1Cc1ccccc1` yielded a Ki of 1.58 µM.

Compound `Cc1ccc(-n2nc(C)c3c(=O)c4cc(Cl)ccc4n(O)c32)cc1` yielded a Ki greater than 10 µM.

On to `COc1cc(Nc2ncc([N+](=O)[O-])c(Nc3ccccc3C(N)=O)n2)cc(OC)c1OC`, for which the inhibition constant (Ki) was determined as 0.2 µM.

`O=C1NCCc2[nH]c(-c3ccnc(-c4cnc5ccccc5c4)c3)cc21`: the Ki is greater than 10 µM.

`Nc1ncnc2c1c(I)nn2[C@H]1CC[C@@H](O)CC1` yielded a Ki of 2 µM.

`O=c1ncn2nc(Sc3ccc(F)cc3F)ccc2c1-c1c(Cl)cccc1Cl` had a Ki greater than 7.94 µM.

Consider `CC(C)(C(N)=O)n1cc(-c2cnc(N)c3c(-c4ccc(NC(=O)Nc5cccc(F)c5)cc4)csc23)cn1`, for which the Ki amounted to 3.16 µM.

Compound `O=C(NCc1ccc(Cl)cc1)Nc1cccc2[nH]ncc12` yielded an inhibitory constant (Ki) greater than 10 µM.

The compound `Cc1cccc(Cl)c1-c1cccc2c(CCCOc3cccc4ccccc34)c(C(=O)NCCOCCOCCN)[nH]c12` yielded a Ki greater than 10 µM.

`CCN1CCN(Cc2ccc(NC(=O)Nc3ccc(Oc4cc(NC)ncn4)cc3)cc2C(F)(F)F)CC1` had an inhibition constant Ki greater than 6.31 µM.

Take `CC(C)Cn1c(N)nc2c(F)cc(-c3c(-c4ccc(F)cc4)nc4sccn34)cc21`: the Ki is greater than 10 µM.

Regarding `Cc1nc2ccc(NS(=O)(=O)c3ccc(N)cc3)cc2nc1C`, the inhibition constant (Ki) was greater than 10 µM.

`CCN(CC)CCCNc1cccc(-c2nc3c(C(N)=O)cccc3[nH]2)n1` yielded a Ki greater than 10 µM.

For `O=C1NCCc2[nH]c(-c3ccnc(-c4ccccc4F)c3)cc21`, the inhibition constant Ki was greater than 10 µM.

As for `COc1ccc(Nc2nccc(Nc3c(N[C@H](C)C(C)(C)C)c(=O)c3=O)n2)cc1OC`, the Ki was 2 µM.

The compound `CC(C)c1nnc2ccc(-c3c(-c4ccc(F)cc4F)nc4occn34)nn12` had an inhibition constant Ki greater than 10 µM.

`Cc1ccccc1-c1c(C(=O)O)n(CCCOc2cccc3ccccc23)c2ccccc12` came in with a Ki greater than 10 µM.

As to `CC1CSc2c(C(=O)O)c(=O)c3cc(F)c(N4CC[C@@H](N)C4)cc3n21` (stereo partly specified), the Ki is greater than 10 µM.

Take `CN(C)C(=O)Nc1ccc2nc(-c3ccco3)c(-c3ccco3)nc2c1`: the inhibition constant (Ki) is greater than 10 µM.

Compound `Oc1cccc(-c2nc(N3CCOCC3)c3oc4ncccc4c3n2)c1` had a Ki greater than 7.94 µM.

For `COc1cccc([C@@H](C)NC(=O)c2ccc(-c3ccncc3)cc2)c1`, the Ki stood at 0.398 µM.

The compound `N[C@H]1CC[C@H](Nc2nccc(-c3c[nH]c4ncccc34)n2)CC1` yielded an inhibition constant Ki of 0.0501 µM.

`C(=N\Nc1nc2ccccc2[nH]1)/c1c[nH]c2ccccc12` displayed a Ki greater than 10 µM.

On to `CCCS(=O)(=O)Nc1ccc(-c2ccc3[nH]nc(N)c3c2)cc1`, for which the Ki is 0.316 µM.

As for `CC(=O)Nc1cc(N)c(C#N)c(-c2ccc3ccccc3c2)n1`, the inhibitory constant (Ki) was greater than 10 µM.

`CCN1CCN(c2ccc(Nc3nccc(-c4c(-c5cccc(C(=O)Nc6ccccc6F)c5)nc5ccccn45)n3)cc2)CC1` gave an inhibition constant Ki of 6.31 µM.

Compound `Cc1n[nH]c2sc(C(=O)NCCc3ccc(Cl)cc3)cc12` displayed an inhibitory constant (Ki) of 3.98 µM.

`Nc1n[nH]c2ccc(-c3nnn(Cc4ccccc4)c3I)cc12` gave a Ki of 0.0631 µM.

`CCOC(=O)c1ccc2[nH]c3c(c2c1)CCNC3=O`: the inhibition constant (Ki) worked out at 6.31 µM.
